# Measured values reported in patent US20100297112A1, “COMBINATIONS COMPRISING DMXAA FOR THE TREATMENT OF CANCER” (Antisoma Research Limited, priority 2005, published 2010).
# Read-outs that look alike come from different tables or passages of the source.
# Legend:
# [1] = test system: A549 (lung carcinoma) xenografts; assay: A549 xenograft study with paclitaxel triple combination (Example 2); type: in vivo, mice; settings: for Drug deaths: Paclitaxel 5, Avastin 5, DMXAA 21 mg/kg by injection; for Regression Duration: days tumour volume less than original treatment volume; for Tumour Growth Delay: treated versus control tumours to quadruple in volume (control 25 days); for Median VQT: tumour volume quadrupling time; for Response CR (Complete Response): undetectable tumour over two weeks; for Response PD (Progressive Disease): ≧50% increase in tumour size; for Response PR (Partial Response): ≧50% reduction in tumour size sustained over two weeks
# From the text: The experimental set-up of this example with respect to the xenografts, mice and cell line is as described in Example 1 above.
# [2] = diclofenac 100 mg/kg i.p., cited from earlier work
# [3] = test system: A549 (lung carcinoma) xenografts; settings: for Regression Duration: Example 1, days tumour volume less than original treatment volume; for Tumour Growth Delay: Example 1, treated versus control tumours to quadruple in volume (control 25 days); for Median VQT: Example 1, tumour volume quadrupling time; for Response CR (Complete Response): Example 1, undetectable tumour over two weeks; for Response PR (Partial Response): Example 1, ≧50% reduction in tumour size sustained over two weeks
# Protocol: (§1) Xenografts for human lung and colorectal cancers are set-up in groups of nude, athymic mice. The cell lines selected are HT29 (ATCC number HTB-38), a colorectal adenocarcinoma, and A549 (ATCC number CCL-185), a lung carcinoma.
# (§2) For this study, DMXAA is given twice in each of Weeks 1 and 4 of the study.
# (§3) Xenografts are measured two or three times per week and their absolute volume recorded; xenograft tumour volume relative to that recorded on Day 0 (V0) is then calculated. The time taken to reach a relative tumour volume of 3× V0 is used as a surrogate marker for survival.
# [4] = test system: HT29 (colorectal) xenografts; settings: for Regression Duration: days tumour volume less than original treatment volume; for Tumour Growth Delay: treated versus control tumours to quadruple in volume (control 17 days); for Median VQT: tumour volume quadrupling time; for Response CR (Complete Response): undetectable tumour over two weeks; for Response PR (Partial Response): ≧50% reduction in tumour size sustained over two weeks
# Protocol: as §1, §2, §3
# [5] = cited from earlier work
# human tumours = settings: phase I, monotherapy, cited from earlier work
Molecule,Response SD (Stable Disease) [1],TTP (median time to disease progression) [1] [days],Drug deaths [1],Regression Duration [1] [days],Tumour Growth Delay [1] [days],Median VQT [1] [days],Response CR (Complete Response) [1],Response PD (Progressive Disease) [1],Response PR (Partial Response) [1],TTP (median time to disease progression) ([3]; Example 1) [days],Regression Duration [3] [days],Tumour Growth Delay [3] [days],Median VQT [3] [days],Response CR (Complete Response) [3],Response PR (Partial Response) [3],Regression Duration [4] [days],Tumour Growth Delay [4] [days],Median VQT [4] [days],Response CR (Complete Response) [4],Response PR (Partial Response) [4],other results
"CC(=O)O[C@H]1C(=O)[C@@]2(C)[C@H]([C@H](OC(=O)c3ccccc3)[C@]3(O)C[C@H](OC(=O)[C@H](O)[C@@H](NC(=O)c4ccccc4)c4ccccc4)C(C)=C1C3(C)C)[C@]1(OC(C)=O)CO[C@@H]1C[C@@H]2O [Paclitaxel, paclitaxel]",0,7,0/11,0,3,28,0,11,0,–,–,–,–,–,–,–,–,–,–,–,–
O=C(O)Cc1ccccc1Nc1c(Cl)cccc1Cl [diclofenac],–,–,–,–,–,–,–,–,–,–,–,–,–,–,–,–,–,–,–,–,"increase in the plasma DMXAA AUC ([2]; female mice): 31%; increase in T1/2 of DMXAA ([2]; male and female mice, P<0.05): threefold; increase in the plasma DMXAA AUC ([2]; male mice): 24%"
Avastin ™: humanised monoclonal antibody that binds to vascular endothelial growth factor (VEGF),–,7,0/11,0,>17,>42,0,–,0,8,0,42,67,0,1,0,17,34,0,0,–
"O=C1CCC(N2C(=O)c3ccccc3C2=O)C(=O)N1 (centres unmarked) [Thalidomide, thalidomide]",–,–,–,–,–,–,–,–,–,–,–,–,–,–,–,–,–,–,–,–,"increase of the AUC of DMXAA ([5]; in plasma, liver and spleen): 1.8 times; increase of the AUC of DMXAA ([5]; in tumour): three"
"Cc1ccc2c(=O)c3cccc(CC(=O)O)c3oc2c1C [DMXAA, 5,6-dimethylxanthenone-4-acetic acid]",0,7,4/11,0,>21,>46,0,7,0,14,0,32,57,0,0,10,29,46,0,1,"Response SD (Stable Disease) ([3]; Example 1): 0; Response PD (Progressive Disease) ([3]; Example 1, ≧50% increase in tumour size): 11; Response SD (Stable Disease) [4]: 0; TTP (median time to disease progression) [4]: 16 days; Response PD (Progressive Disease) ([4]; ≧50% increase in tumour size): 5; tumour blood flow (dynamic MRI) (human tumours; well-tolerated doses): significant reduction in tumour blood flow; tumour responses (human tumours): very few tumour responses"
